Results as given in the CheMixHub ionic liquid set.
Several values for one entry are separate records, joined by “and”; a condition that tells them apart may be missing. Identical values can stand only once. ± gives the uncertainty stated by the source.

Assay: xn = mol fraction of the nth substance listed

CCCCCCCCn1cc[n+](C)c1.[Br-] + O + CCCCCC[n+]1ccn(C)c1.[Br-]
electrical conductivity, 101.3 kPa
Conditions | x2 = 0.8977, x1 = 0.04147 | x2 = 0.8977, x1 = 0.06092 | x2 = 0.8993, x1 = 0.02123 | x2 = 0.8993, x1 = 0.07955 | x2 = 0.9473, x1 = 0.02113 | x2 = 0.9473, x1 = 0.03155 | x2 = 0.9477, x1 = 0.01078 | x2 = 0.9477, x1 = 0.04155
293.15 K | 3.55 S/m and 3.56 S/m and 3.57 S/m | 3.41 S/m and 3.44 S/m (2×) | 3.68 S/m and 3.69 S/m | 3.3 S/m and 3.31 S/m and 3.32 S/m | 3.98 S/m and 4 S/m and 4.01 S/m | 3.83 S/m and 3.85 S/m and 3.87 S/m | 4.14 S/m (2×) and 4.16 S/m | 3.7 S/m and 3.71 S/m and 3.72 S/m
298.15 K | 4.11 S/m and 4.12 S/m | 3.95 S/m and 3.96 S/m and 3.98 S/m | 4.25 S/m and 4.26 S/m | 3.81 S/m and 3.83 S/m and 3.84 S/m | 4.56 S/m and 4.6 S/m and 4.61 S/m | 4.4 S/m and 4.44 S/m (2×) | 4.74 S/m and 4.76 S/m and 4.77 S/m | 4.25 S/m and 4.26 S/m and 4.28 S/m
303.15 K | 4.67 S/m and 4.68 S/m and 4.7 S/m | 4.51 S/m and 4.52 S/m and 4.54 S/m | 4.85 S/m (2×) and 4.86 S/m | 4.36 S/m and 4.37 S/m and 4.38 S/m | 5.21 S/m and 5.22 S/m and 5.24 S/m | 5.01 S/m and 5.03 S/m and 5.05 S/m | 5.39 S/m and 5.4 S/m and 5.42 S/m | 4.84 S/m and 4.86 S/m and 4.87 S/m

CCOP(=O)([O-])OCC.CC[n+]1ccn(C)c1 + O + CS(C)=O
viscosity [mPa·s], 100 kPa
Conditions | 293.15 K | 303.15 K | 313.15 K | 323.15 K
x2 = 0.004, x3 = 0.497 | – | 53 ± 10 | – | –
x2 = 0.005, x3 = 0.768 | – | – | 9.6 ± 3.4 | 7.1 ± 2
x2 = 0.008, x3 = 0.886 | 5.9 | – | 3.5 ± 1.5 | 2.9 ± 1

CCCC[N+]1(C)CCCC1.O=S(=O)([N-]S(=O)(=O)C(F)(F)F)C(F)(F)F + O=C1CCCO1
100 kPa
Conditions | electrical conductivity [S/m] | viscosity [mPa·s]
303.15 K, x2 = 0.2019 | 0.461 ± 0.014 | 36.7 ± 1.5
308.15 K, x2 = 0.1075 | 0.459 ± 0.014 | 39.2 ± 1.6
308.15 K, x2 = 0.3004 | 0.638 ± 0.019 | 23.93 ± 0.97
308.15 K, x2 = 0.9498 | 1.31 ± 0.039 | –
313.15 K, x2 = 0.7009 | 1.67 ± 0.05 | 5.75 ± 0.23
313.15 K, x2 = 0.9498 | 1.41 ± 0.042 | –
318.15 K, x2 = 0.2019 | 0.705 ± 0.021 | 22.28 ± 0.9
318.15 K, x2 = 0.8509 | 2.23 ± 0.067 | –
318.15 K, x2 = 0.9498 | 1.5 ± 0.045 | –
323.15 K, x2 = 0.3004 | 0.905 ± 0.027 | 15.24 ± 0.62
323.15 K, x2 = 0.5999 | 1.57 ± 0.047 | 6.44 ± 0.26
323.15 K, x2 = 0.7009 | 1.98 ± 0.059 | 4.7 ± 0.19
323.15 K, x2 = 0.9498 | 1.6 ± 0.048 | –

CC[N+](C)(CC)CCOC.O=S(=O)([N-]S(=O)(=O)C(F)(F)F)C(F)(F)F + O=C1CCCO1
101 kPa
Conditions | electrical conductivity [S/m] | viscosity [mPa·s]
288.15 K, x1 = 0.1004 | 1.07 ± 0.011 | 5.77 ± 0.12
288.15 K, x1 = 0.2006 | 1.05 ± 0.011 | 8.69 ± 0.18
288.15 K, x1 = 0.4998 | 0.504 ± 0.01 | 39.28 ± 0.84
288.15 K, x1 = 0.6002 | 0.42 ± 0.01 | 63.7 ± 1.4
293.15 K, x1 = 0.1004 | 1.18 ± 0.012 | 4.642 ± 0.099
293.15 K, x1 = 0.3003 | 0.925 ± 0.01 | 12.34 ± 0.26
293.15 K, x1 = 0.4998 | 0.589 ± 0.01 | 30.79 ± 0.66
293.15 K, x1 = 1 | 0.184 ± 0.01 | 162.2 ± 6.7
298.15 K, x1 = 0.1004 | 1.305 ± 0.013 | 3.697 ± 0.079
298.15 K, x1 = 0.4007 | 0.841 ± 0.01 | 15.12 ± 0.32
303.15 K, x1 = 0.6999 | 0.592 ± 0.01 | 39.92 ± 0.85
303.15 K, x1 = 1 | 0.301 ± 0.01 | 89.7 ± 2.4
308.15 K, x1 = 0.3003 | 1.28 ± 0.013 | 7.61 ± 0.16
308.15 K, x1 = 0.4007 | 1.08 ± 0.011 | 10.57 ± 0.23
308.15 K, x1 = 0.4998 | 0.904 ± 0.01 | 15.55 ± 0.33
308.15 K, x1 = 0.9003 | 0.463 ± 0.01 | 51.6 ± 1
313.15 K, x1 = 0.1004 | 1.644 ± 0.016 | 1.923 ± 0.041
313.15 K, x1 = 0.2006 | 1.76 ± 0.018 | 3.958 ± 0.084
313.15 K, x1 = 0.8001 | 0.676 ± 0.01 | 30.48 ± 0.65
318.15 K, x1 = 0.6002 | 1.021 ± 0.01 | 14.49 ± 0.31
323.15 K, x1 = 0.2006 | 2.07 ± 0.021 | 2.954 ± 0.063
323.15 K, x1 = 0.4007 | 1.5 ± 0.015 | 6.43 ± 0.14
323.15 K, x1 = 0.4998 | 1.29 ± 0.013 | 8.64 ± 0.18
323.15 K, x1 = 0.6002 | 1.145 ± 0.011 | 11.6 ± 0.3
328.15 K, x1 = 0.6002 | 1.28 ± 0.013 | 9.45 ± 0.2
328.15 K, x1 = 1 | 0.706 ± 0.01 | 26.35 ± 0.56
333.15 K, x1 = 0.4007 | 1.812 ± 0.018 | 4.73 ± 0.1
333.15 K, x1 = 1 | 0.816 ± 0.01 | 21.31 ± 0.45
343.15 K, x1 = 0.3003 | 2.44 ± 0.024 | 2.72 ± 0.058
343.15 K, x1 = 0.4998 | 1.926 ± 0.019 | 4.472 ± 0.095
348.15 K, x1 = 0.4007 | 2.346 ± 0.023 | 3.095 ± 0.066
348.15 K, x1 = 0.6999 | 1.68 ± 0.017 | 5.09 ± 0.11
348.15 K, x1 = 0.9003 | 1.328 ± 0.013 | 9.11 ± 0.19
353.15 K, x1 = 0.2006 | 3.09 ± 0.031 | 1.361 ± 0.029
353.15 K, x1 = 0.3003 | 2.85 ± 0.029 | 2.11 ± 0.045
353.15 K, x1 = 0.6002 | 2.05 ± 0.02 | 3.425 ± 0.073
353.15 K, x1 = 0.9003 | 1.46 ± 0.015 | 7.16 ± 0.15

C1CCC2=NCCCN2CC1 + O=S(=O)([N-]S(=O)(=O)C(F)(F)F)C(F)(F)F.[Li+]
101 kPa, frequency 0 MHz, x1 = 0.8
Conditions | electrical conductivity [S/m]
328.15 K | 0.00259 ± 3e-05
338.15 K | 0.00474 ± 6e-05
348.15 K | 0.0114 ± 0.00015

101 kPa, x1 = 0.8
Conditions | viscosity [mPa·s]
328.15 K | 3336 ± 470
348.15 K | 358 ± 24

O=S(=O)([N-]S(=O)(=O)C(F)(F)F)C(F)(F)F.[Na+] + O=S(=O)([N-]S(=O)(=O)C(F)(F)F)C(F)(F)F.[Li+]
100 kPa, frequency 1 MHz, x2 = 0.67
Conditions | electrical conductivity [S/m]
473.6 K | 0.114 ± 0.012
483.1 K | 0.156 ± 0.016
492.1 K | 0.205 ± 0.021
502.4 K | 0.269 ± 0.028
512.5 K | 0.342 ± 0.035
523.2 K | 0.435 ± 0.045
531.5 K | 0.533 ± 0.054
543.3 K | 0.635 ± 0.064
552 K | 0.753 ± 0.077
561.2 K | 0.91 ± 0.092
571 K | 1.02 ± 0.1

100 kPa, x2 = 0.67
Conditions | viscosity [mPa·s]
473.9 K | 411 ± 47
483.1 K | 267 ± 30
492.6 K | 203 ± 22
502.5 K | 146 ± 16
512.8 K | 106 ± 11
523.6 K | 78.1 ± 8.2
531.9 K | 60.7 ± 6.3
543.5 K | 46.8 ± 4.8
552.5 K | 36.2 ± 3.8
561.8 K | 29.1 ± 3

CCCCCCCCn1cc[n+](C)c1.[Br-] + OC1OC[C@@H](O)[C@H](O)[C@H]1O + O
298.15 K, 101 kPa
Conditions | viscosity [mPa·s]
x2 = 0, x1 = 0.001831 | 0.965 ± 0.014
x2 = 0, x1 = 0.003598 | 1.025 ± 0.015
x2 = 0, x1 = 0.005443 | 1.103 ± 0.015
x2 = 0, x1 = 0.007132 | 1.172 ± 0.015

CCn1cc[nH+]c1.[Cl-] + OCC(O)CO
Conditions | viscosity [mPa·s]
303.15 K, 100 kPa, x1 = 0.333 | 65.7 ± 0.7

CCCC[n+]1ccn(C)c1.O=S(=O)([O-])C(F)(F)F + OCCO
100 kPa
Conditions | viscosity [mPa·s]
298.15 K, x1 = 0.0926 | 15.47 ± 0.63
298.15 K, x1 = 0.6922 | 33.7 ± 1.4
303.15 K, x1 = 0.0926 | 12.53 ± 0.51
303.15 K, x1 = 0.4999 | 21.87 ± 0.9
303.15 K, x1 = 0.6922 | 27.7 ± 1.1
308.15 K, x1 = 0.2985 | 13.86 ± 0.57
308.15 K, x1 = 0.4999 | 18.33 ± 0.75
308.15 K, x1 = 0.6922 | 23.66 ± 0.98
308.15 K, x1 = 0.7966 | 29 ± 1.2
313.15 K, x1 = 0.2985 | 11.67 ± 0.48
313.15 K, x1 = 0.4999 | 15.58 ± 0.64
313.15 K, x1 = 0.6922 | 20.18 ± 0.83
318.15 K, x1 = 0.0926 | 7.45 ± 0.3
318.15 K, x1 = 0.4999 | 13.4 ± 0.55
323.15 K, x1 = 0.1936 | 6.92 ± 0.28
323.15 K, x1 = 0.3912 | 9.9 ± 0.41
323.15 K, x1 = 0.7966 | 18.19 ± 0.75
